# From patent US20140011870A1, “Methods of Treating Obesity Using an Effective Dose of a METAP-2 Inhibitor” (Zafgen, Inc., priority 2010, published 2014)
# How the values were obtained:
# [1] = Body weight in obese patients, twice weekly intravenous administration (clinical trial); format: in vivo, human; conditions: for Dose at which weight loss efficacy is obtained: administered twice weekly
# Procedure: Obese patients were treated in three cohorts with intravenous administration of a formulation of the compound 6-O-(4-dimethylaminoethoxy)cinnamoyl fumagillol oxalate. The compound was intravenously administered to each patient of a cohort (except for a placebo cohort) twice weekly for at least 26 days. Each of patients in the three non-placebo cohorts received either 0.1 mg/m^2 (cohort 1); 0.3 mg/m^2 (cohort 2); or 0.9 mg/m^2 (cohort 3) doses of the compound at the time of administration. The trial was conducted under the appropriate government and medical supervision. […] Table 1 summarizes body weight determination of the 9 patients in the 0.9 mg/m^2 cohort on the day of the first dose and prior to a second dose administered four days later. […] FIG. 1 depicts the body weight change (loss) as a percent before each administration of the biweekly dose for the 0.9 mg/m^2 cohort. FIG. 2 depicts the Visual Analog Scale reports of hunger decline about 50% following successive biweekly dose administration for the 0.9 mg/m^2 cohort. […] All of the subjects of the trial described in Example 1 received doses ranging from 1.8 to 2.2 mg with each administration (given twice weekly). However, weight change of was not strictly associated with dose delivered. Instead, response was strongly associated with dose administered per unit excess body weight, as compared to weight change associated with dose delivered per unit body weight.
# [2] = human, in vivo
# Procedure: (§1) Obese patients were treated in three cohorts with intravenous administration of a formulation of the compound 6-O-(4-dimethylaminoethoxy)cinnamoyl fumagillol oxalate. The compound was intravenously administered to each patient of a cohort (except for a placebo cohort) twice weekly for at least 26 days. Each of patients in the three non-placebo cohorts received either 0.1 mg/m^2 (cohort 1); 0.3 mg/m^2 (cohort 2); or 0.9 mg/m^2 (cohort 3) doses of the compound at the time of administration. The trial was conducted under the appropriate government and medical supervision.
# Table 1 summarizes body weight determination of the 9 patients in the 0.9 mg/m^2 cohort on the day of the first dose and prior to a second dose administered four days later.
# There was a significant correlation between weight loss of patients and maintained exposure of 0.02 ng/mL of the drug above the level of quantitation of the assay 24 hours after dosing, as shown in FIG. 4 (circled data point is exposure of one poor responder below the level of quantitation of assay). The PK profile at day 26 is representative of steady state (see FIG. 5).
# [3] = Visual Analog Scale reports of hunger in obese patients; format: in vivo, human; conditions: successive biweekly dose administration, 0.9 mg/m^2 cohort
# Procedure: FIG. 2 depicts VAS reports of hunger decline by approximately 50% with body weight change (percent) with biweekly dosing of f 0.1 mg/m^2, 0.3 mg/m^2, and 0.9 mg/m^2 (approximately 1.8 to 2.1 mg) of 6-O-(4-dimethylaminoethoxy)cinnamoyl fumagillol in human patients. Values are means (n=6 per dose level) of changes in fasted Visual Analog Scale scores for each visit day vs. Day 1 for population; p values derived from 2-way ANOVA with Bonferroni post-test comparisons (*, p<0.05; **, p<0.01 vs. placebo). Obese patients were treated in three cohorts with intravenous administration of a formulation of the compound 6-O-(4-dimethylaminoethoxy)cinnamoyl fumagillol oxalate. The compound was intravenously administered to each patient of a cohort (except for a placebo cohort) twice weekly for at least 26 days. Each of patients in the three non-placebo cohorts received either 0.1 mg/m^2 (cohort 1); 0.3 mg/m^2 (cohort 2); or 0.9 mg/m^2 (cohort 3) doses of the compound at the time of administration. The trial was conducted under the appropriate government and medical supervision. […] FIG. 1 depicts the body weight change (loss) as a percent before each administration of the biweekly dose for the 0.9 mg/m^2 cohort. FIG. 2 depicts the Visual Analog Scale reports of hunger decline about 50% following successive biweekly dose administration for the 0.9 mg/m^2 cohort.
# [4] = system: adiponectin; test: Adiponectin levels in the serum of patients undergoing the trial; format: in vivo, human; conditions: with treatment
# Procedure: as §1, with “supervision. Levels of adiponectin in the serum of patients undergoing the trial were also measured.” for “supervision.”
# [5] = listed as 6-O-(4-dimethylaminoethoxy)cinnamoyl fumagillol
smiles,measurement,setting,value
CO[C@@H]1[C@H](OC(=O)/C=C/c2ccc(OCCN(C)C)cc2)CC[C@]2(CO2)[C@H]1[C@@]1(C)O[C@@H]1CC=C(C)C.O=C(O)C(=O)O [6-O-(4-dimethylaminoethoxy)cinnamoyl fumagillol oxalate],Weight loss efficacy at low doses,"[1]; 0.1 and 0.3 mg/m^2, twice weekly",Lack of efficacy
same,body weight loss over 26 days of exposure,"[1]; 7 of the 9 subjects treated at 0.9 mg/m^2, twice weekly",3-4%
same,Dose at which weight loss efficacy is obtained,[1],≥ 0.02 mg/kg
same,Dose at which weight loss efficacy is obtained,[1]; [5],~0.02 mg/kg
same,Dose per kg of excess body weight needed to see effects,"[1]; obese patients, twice weekly",> 40 μg of drug per kg of excess body weight
same,Drug exposure at 24 hours post dose correlated with weight loss,[2],above 0.02 ng/mL
same,terminal half life of the drug,[2]; iv,5.4 h
same,Visual Analog Scale reports of hunger decline,[3],about 50%
same,Visual Analog Scale reports of hunger decline,[3]; [5],approximately 50%
same,Increase in adiponectin concentrations,[4],over 60%
